Data: ChEMBL document CHEMBL1142962, “Antiproliferative prenylated stilbenes and flavonoids from Macaranga alnifolia from the Madagascar rainforest” (J Nat Prod, 2007)

Test system: A2780 (human ovarian cancer)
Assay: Antiproliferative activity against drug-sensitive human A2780 cells

Row | SMILES | IC50
1 | CC(C)=CCc1c(O)cc(/C=C/c2cc(O)c3c(c2)C[C@@H]2C(C)(C)[C@H](O)CC[C@@]2(C)O3)cc1O [SCHWEINFURTHIN G] | 390 nM
2 | COc1cc(/C=C/c2cc(O)c3c(c2)OC(C)(C)C(O)C3)cc2c1O[C@]1(C)C[C@@H](O)[C@@H](O)C(C)(C)[C@H]1C2 (stereo partly drawn) [SCHWEINFURTHIN H] | 4500 nM
3 | CC(C)=CCc1c(O)cc(/C=C/c2cc(O)c3c(c2)C[C@@H]2C(C)(C)[C@H](O)[C@H](O)C[C@@]2(C)O3)cc1O [VEDELIANIN] | 130 nM
